Experimental data: PubChem BioAssay AID1996
In brackets after ≈: the same amount, converted by molar mass.

Details: buffer; pH 7.4; 200.0 µM

SMILES	solubility kinetic [µg/mL]
Cc1ccc(NC(=O)CNS(=O)(=O)c2ccc(F)cc2)cc1C	6.7 (≈ 19.9 µM)
CCNS(=O)(=O)c1ccc(CCC(=O)NCc2cccnc2)cc1	35.6 (≈ 102 µM)
COc1nc(NCCO)nc(Nc2cc(Cl)ccc2OC)n1	2.5 (≈ 7.67 µM)
O=C(NC1CCN(C(=O)Nc2cccc(Cl)c2)CC1)c1ccccc1	0.4 (≈ 1.12 µM)
CC1CCCCN1C(=O)CSc1nc(C2CC2)nc2ccccc12 (centres undefined)	> 51.2
COc1ccccc1N1CCN(c2cnccn2)CC1	> 40.6
CCCNC(=O)N1CCN(C(c2ccccc2)c2ccccc2)CC1	3.9 (≈ 11.6 µM)
CC1(c2ccc([N+](=O)[O-])cc2)Nc2ccccc2S1 (centres undefined)	12.1 (≈ 44.4 µM)
COc1ccccc1CNS(=O)(=O)c1cccs1	> 42.5
Cc1cc(=O)oc2cc(OCC(=O)N3CCCC3)ccc12	> 43.1
O=C(O)C1C2C=CC(C2)C1C(=O)NCc1cccc(Cl)c1 (centres undefined)	43.3 (≈ 142 µM)
CCOc1ccccc1NC(=O)COC(=O)/C=C/c1cccs1	3.1 (≈ 9.35 µM)
Cc1cc(C(=O)OCC(=O)N2CCCCCC2)ccc1[N+](=O)[O-]	> 48.1
CCOC(=O)N1CCN(S(=O)(=O)c2ccc([N+](=O)[O-])cc2)CC1	36.9 (≈ 107 µM)
Oc1cc2c(cc1CN1CCN(c3ccc(F)cc3)CC1)OCO2	5.7 (≈ 17.3 µM)
C=CCN=C1S/C(=C/c2ccc([N+](=O)[O-])cc2)C(=O)N1CC=C	< 0.2
O=S(=O)(NCCNc1nccc(C(F)(F)F)n1)c1ccccc1	50.2 (≈ 145 µM)
Cc1nc2ccccc2c(=O)n1Cc1ccco1	> 36
CC1CCN(C(=O)CN(Cc2ccc(Cl)cc2)S(C)(=O)=O)CC1	52.8 (≈ 147 µM)
O=C(COC(=O)c1cccnc1Cl)NCC1CCCO1 (centres undefined)	> 44.8

SMILES	solubility kinetic [µg/mL]
COc1ccc(/C=C2\SC(=O)N(CC(=O)Nc3cccc(C)c3)C2=O)cc1O	0.6 (≈ 1.51 µM)
Cc1ccc(N2C(=O)C3CCC(C)(C2=O)C3(C)C)cc1C (centres undefined)	32.3 (≈ 113 µM)
O=C(NCc1ccccn1)Nc1ccc(F)cc1F	> 39.5
O=C(COC(=O)Cc1ccsc1)Nc1ccc(Cl)cn1	> 46.6
Nc1ccccc1C(=O)N1CCC(O)(c2ccc(Cl)cc2)CC1	23.9 (≈ 72.2 µM)
O=C(NCCCNC(=O)c1ccccn1)c1cccc(F)c1	42.3 (≈ 140 µM)
CCOC(=O)C1(CC2CC2)CCN(Cc2cnc(N(C)C)s2)CC1	46.1 (≈ 131 µM)
COc1ccc(COC(=O)C2=C(C)NC(=O)NC2c2ccc(F)cc2)cc1 (centres undefined)	3 (≈ 8.1 µM)
Cl.O=C(Nc1ncc([N+](=O)[O-])s1)c1cccs1	> 43.8
O=C(COC(=O)c1cc(=O)[nH]c2ccccc12)Nc1ccc(F)cc1F	13.7 (≈ 38.2 µM)
O=C(CCN1C(=O)S/C(=C\c2ccccc2)C1=O)N1CCCCC1	20.6 (≈ 59.8 µM)
CC(=O)Nc1ccc(NC(=O)CCc2ccc(C)o2)cc1	> 42.9
N#Cc1ccccc1S(=O)(=O)N1CCN(C(=O)C2CC(=O)N(c3ccc4c(c3)OCCO4)C2)CC1 (centres undefined)	68.6 (≈ 138 µM)
O=S(=O)(Nc1cccc(CO)c1)c1cccs1	> 40.4
O=C(c1ccc(Cl)c([N+](=O)[O-])c1)N1CCCc2ccccc21	23.7 (≈ 74.8 µM)
COc1ccc2oc(=N)c(C(=O)Nc3ccc(Cl)cc3)cc2c1	< 0.4
Cc1cc(N2CCN(C)CC2)nc(-c2ccccc2O)n1	> 42.7
CC(C(=O)O)N1C(=O)C2C3c4ccccc4C(c4ccccc43)[C@@H]2C1=O (some centres undefined)	> 52.1
COc1ccc(S(=O)(=O)N2CCC(C(=O)Oc3cccc(C)c3)CC2)cc1OC	< 0.9
OCCNCC12CC3CC(CC(C3)C1)C2	26.4 (≈ 126 µM)

SMILES	solubility kinetic [µg/mL]
COc1ccccc1NS(=O)(=O)c1ccc2oc(N)nc2c1	> 47.9
O=[N+]([O-])c1ccc(O)c(CN2CCCCCC2)c1	> 37.5
O=S(=O)(NC1=NCCC1)c1cccc(NC(=S)Nc2ccc(OC(F)F)cc2)c1	> 66.1
S=C(NCCc1ccccn1)Nc1ccccc1	32.1 (≈ 125 µM)
O=C(Nc1cccc(F)c1)Nc1cnccn1	6.1 (≈ 26.3 µM)
O=C(c1ccc2oc(CCc3ccccc3)nc2c1)N1CC[C@H](O)C1	41.1 (≈ 122 µM)
Cc1nc(-c2ccc(-c3ccon3)s2)no1	16.6 (≈ 71.2 µM)
O=C(Nc1ccccc1N1CCOCC1)c1ccc(Cl)nc1	> 47.7
CC(=O)Nc1ccccc1NC(=O)c1ccc(C)c(C)c1	> 42.4
Cc1cccc(C(=O)NCC(C)NC(=O)c2cccc(C)c2)c1 (centres undefined)	23.7 (≈ 76.4 µM)
O=S(=O)(NC(=S)Nc1ccccc1)c1ccc(F)cc1	> 46.6
COc1ccc(C(=O)Cn2cnc3ccccc3c2=O)cc1OC	42.3 (≈ 130 µM)
Cc1ccc(NC(=O)C2CC(=O)N(CCc3ccccc3)C2)c(C)c1 (centres undefined)	42 (≈ 125 µM)
CC(NCc1ccccc1O)c1ccccc1 (centres undefined)	> 34.1
NC(=O)NC(=O)COC(=O)c1sc2ccccc2c1Cl	1.2 (≈ 3.84 µM)
COc1ccc(NC(=O)NC2CCCCCCC2)cc1	2.5 (≈ 9.05 µM)
Cc1ccc(-c2nc(NCC3CCCO3)sc2C)cc1 (centres undefined)	24.2 (≈ 83.9 µM)
Cc1cc(C)cc(NCc2ccncc2)c1	24.8 (≈ 117 µM)
Nc1nc(-c2ccccc2)c(-c2ccccc2)o1	> 35.4
